{"source": "paper PMC7461568", "about": "“Novel Cyclic Lipopeptide Antibiotics: Effects of Acyl Chain Length and Position” (International Journal of Molecular Sciences, 2020)", "key": {"E. coli ATCC 25922": {"system": "E. coli ATCC 25922", "format": "cell-based, Escherichia coli", "details": "MHB-II, inoculum 5 × 10^5 CFU/mL, 37 °C, 18–24 h, visual read-out, triplicate", "description": "(§1) In the original report on S3(B), MIC experiments were carried out by using non-cation-adjusted MHB-I media. To this, bovine serum albumin (BSA) and acetic acid were added. The rationale for choosing a medium without cations is that cation-adjusted media (MHB-II) in some cases causes substantial inhibition of the activity of cationic peptides. Furthermore, some peptides are at risk of precipitation when diluted into MHB medium, which can be avoided via the addition of BSA and acetic acid. However, the use of MHB-II is favorable to imitate the in vivo conditions as much as possible. Both media were tested with and without the addition of BSA and acetic acid by trial and error. The use of pure MHB-II was compatible with S3(B) and its fatty acid analogues, and therefore was chosen for the MIC determinations. Noticeably, MHB-I with BSA and acetic acid led to precipitation of lipopeptides in the present work.\nCation-adjusted Mueller-Hinton broth (MHB-II) media (BD BBLTM Beef extract powder, BD BactoTMCasamino acids, and DIFCO soluble starch was from Becton, Dickinson and Company©, Franklin Lakes, NJ, USA). MHB media supplemented with 0.2% BSA was from Sigma Aldrich (St. Louis, MO, USA) and 0.01% acetic acid from VWR®. The 96 well plate cell-culture cluster, round-bottom, polypropylene plates, and V-shaped 96 well polypropylene plates were purchased from Corning® Inc., Costar®, Corning, NY, USA. Microseal® film was obtained from Bio-Rad Laboratories, Inc., Hercules, CA, USA. A VersaMaxTM Tunable Microplate Reader (Molecular Devices LLC, Sunnyvale, CA, USA) was used and the data were evaluated on a Softmax® Pro (Molecular Devices LLC).\nThe MIC experiments were performed according to a protocol adapted from Wiegand et al., with minor modifications. The MICs were determined in triplicate. The peptides were dissolved in Milli-Q water to produce 10 mg/mL stock solutions in small glass containers. The bacterial isolates to be tested were streaked onto agar plates to obtain single colonies, and the plates were incubated at 37 °C for 18–24 h. The strains tested were S. aureus ATCC 29213, P. aeruginosa ATCC 27853, E. coli ATCC 25922, A. baumannii ATCC 19606, and K. pneumonia ATCC 13883. Test compounds were prepared in 2-fold dilutions in 50 μL volumes in polypropylene microtiter plates. Bacterial cultures grown to OD600 = 0.1–0.4 were diluted to a desired OD600 of 0.001–0.002 corresponding to 1 × 10^6 CFU/mL. Next, 50 μL bacterial suspension was added to the microtiter plates, giving a final bacterial inoculum of 5 × 10^5 CFU/mL per well. The plates were incubated at 37 °C for 18–24 h. […] The MIC values were visually evaluated, and the MIC was set to the lowest concentration […] based on triplicate measurements. […]"}, "S. aureus ATCC 29213": {"system": "S. aureus ATCC 29213", "assay": "microbe, parasite or virus in culture", "format": "cell-based, Staphylococcus aureus", "details": "S. aureus ATCC 29213; MHB-II, inoculum 5 × 10^5 CFU/mL, 37 °C, 18–24 h, visual read-out, triplicate", "description": "as §1, with “The use of pure MHB-II was compatible with S3(B) and its fatty acid analogues, and therefore was chosen for the MIC determinations. Noticeably, MHB-I with BSA and acetic acid led to precipitation of lipopeptides in the present work.” left out\n(§2) Cation-adjusted Mueller-Hinton broth (MHB-II) media (BD BBLTM Beef extract powder, BD BactoTMCasamino acids, and DIFCO soluble starch was from Becton, Dickinson and Company©, Franklin Lakes, NJ, USA). […] A VersaMaxTM Tunable Microplate Reader (Molecular Devices LLC, Sunnyvale, CA, USA) was used and the data were evaluated on a Softmax® Pro (Molecular Devices LLC).\n(§3) The MIC experiments were performed according to a protocol adapted from Wiegand et al., with minor modifications. The MICs were determined in triplicate. […] The MIC values were visually evaluated, and the MIC was set to the lowest concentration […] based on triplicate measurements. […]"}, "A. baumannii ATCC 19606": {"system": "A. baumannii ATCC 19606", "format": "cell-based, Acinetobacter baumannii", "details": "MHB-II, inoculum 5 × 10^5 CFU/mL, 37 °C, 18–24 h, visual read-out, triplicate", "description": "as §1, with “The use of pure MHB-II was compatible with S3(B) and its fatty acid analogues, and therefore was chosen for the MIC determinations. Noticeably, MHB-I with BSA and acetic acid led to precipitation of lipopeptides in the present work.” left out\nas §2, §3"}, "P. aeruginosa ATCC 27853": {"system": "P. aeruginosa ATCC 27853", "format": "cell-based, Pseudomonas aeruginosa", "details": "MHB-II, inoculum 5 × 10^5 CFU/mL, 37 °C, 18–24 h, visual read-out, triplicate", "description": "as §1, with “The use of pure MHB-II was compatible with S3(B) and its fatty acid analogues, and therefore was chosen for the MIC determinations. Noticeably, MHB-I with BSA and acetic acid led to precipitation of lipopeptides in the present work.” left out\nas §2, §3"}, "human erythrocytes": {"system": "human erythrocytes", "assay": "Hemolysis of red blood cells", "details": "1 h; for %H, percent hemolytic activity against red blood cells at 150 μM: human erythrocytes, 0.5% v/v RBC suspension in PBS, peptide 150 μM, 37 °C, absorbance 414 nm, melittin positive control, triplicate", "description": "The hemolysis experiments were performed according to the protocol described in Reference. The peptides were tested at concentrations from 2.35–150 μM, using melittin as positive control and PBS as negative control. One premade tablet of PBS was dissolved in 200 mL Milli-Q water. The solution was kept in the refrigerator for a maximum of two days. The day before the test, the positive control wells of the 96 well polypropylene plates were precoated with 150 μL of melittin 5 μM solution in PBS. The solution was prepared in Protein LoBind Eppendorf tubes. The day of the test, the solution was discarded and the wells were washed three times with 150 μL PBS. A melittin 2.50 μM solution in PBS was prepared in Protein LoBind Eppendorf tubes—500 μL for every plate to be used. The mass of the peptide needed to reach a final concentration of 300 μM (to start testing down from 150 μM) was calculated, since a volume of 500 μL was desirable. […] The peptides were dissolved in PBS and tested in triplicate.\nIn a 96 well polypropylene plate, 150 μL of peptide solution was transferred to three wells in Row A. Therefore, each plate could accommodate up to four peptides. A 2-fold serial dilution of the peptides was obtained by transferring 75 μL of the solutions from Row A to the corresponding wells in Row B, mixing a couple of times. From Row B, 75 μL was transferred to Row C and so on until Row G, where 75 μL was discarded after mixing. Volumes of 75 μL melittin (2.50 μM) was transferred to the positive control wells in H1–H6. Preparation of the RBC suspension: 1 mL of whole blood was transferred to a cryotube with 3 mL of PBS, and then it was gently mixed and centrifuged for 8 min at 3000 rpm. The supernatant was discarded, and the process was repeated twice; with 4 mL at 3000 rpm and 4 mL at 4000 rpm, respectively. From the final RBC pellet, 40 μL was transferred to 8 mL of PBS (multiplied by the number of test plates needed). This corresponded to a 0.5% v/v RBC suspension. The suspension was gently mixed and transferred into a CAPPOrigami reservoir. Using a multichannel pipette, 75 μL of the suspension was transferred into each well and mixed in the direction of increasing concentration. The control wells were mixed separately. The plates were covered with BioradMicroseal foil and incubated at 37 °C for 1 h. The plates (maximum two) were centrifuged for 10 min at 4000 rpm, followed by transferring of supernatant (60 μL) from each well into the corresponding wells in a clear ELISA plate. The absorbance (A) of each well was measured at λ = 414 nm using the software program Softmax(R) Pro."}, "[1]": {"assay": "Hydrophobicity by analytical RP-HPLC (%B at peak elution)", "format": "physicochemical", "details": "chromatographic, percentage of mobile phase B at the peak elution time", "description": "To investigate the effect of attaching fatty acids to a macrocycle, fatty acid tails of different lengths were used. When the carbon chain was elongated, the hydrophobicity of the peptide was increased gradually. Herein, the hydrophobicity is expressed as the percentage of mobile phase B at the peak elution time on an RP-HPLC system."}}, "note": "Where a SMILES comes first, the peptide text is derived from it. [ ]: non-standard residue; d: D form. The star is where a group is joined. 2Nal = N[C@@H](Cc1ccc2ccccc2c1)C(=O)O; Octanoyl = CCCCCCCC(=O)*; Dab = NCC[C@H](N)C(=O)O; AEEA = NCCOCCOCC(=O)O"}
{"smiles": "CCCCCCCC(=O)NCC[C@@H]1NC(=O)[C@H](CCN)NC(=O)[C@H](CCCNC(=N)N)NC(=O)[C@H](Cc2ccc3ccccc3c2)NC(=O)[C@H](CCN)NC(=O)[C@H](CC(N)=O)NC(=O)[C@H](CCN)NC(=O)[C@H](Cc2ccc3ccccc3c2)NC(=O)COCCOCCNC1=O", "note": "[(C8)^5] (cyclo([Dab][2Nal]R[Dab][Dab](Octanoyl)[AEEA][2Nal][Dab]N))", "values": [{"measurement": "Minimum inhibitory concentration, EC", "setting": "E. coli ATCC 25922", "value": 16, "unit": "µg/mL"}, {"measurement": "Minimum inhibitory concentration, SA", "setting": "S. aureus ATCC 29213", "value": 8, "unit": "µg/mL"}, {"measurement": "Minimum inhibitory concentration, AB", "setting": "A. baumannii ATCC 19606", "value": 16, "unit": "µg/mL"}, {"measurement": "Minimum inhibitory concentration, PA", "setting": "P. aeruginosa ATCC 27853", "value": 8, "unit": "µg/mL"}, {"measurement": "%H, percent hemolytic activity against red blood cells at 150 μM", "setting": "human erythrocytes", "value": 42, "unit": "%"}, {"measurement": "%H, percent hemolytic activity against red blood cells at 150 μM", "setting": "human erythrocytes; listed as (C8)^7", "value": 56, "unit": "%"}, {"measurement": "HD50 (hemolysis)", "setting": "human erythrocytes; red cells of human", "value": "> 150", "unit": "µM"}, {"measurement": "%B at peak of elution in analytical HPLC (hydrophobicity)", "setting": "[1]", "value": 69, "unit": "%"}, {"measurement": "%B at peak of elution in analytical HPLC (hydrophobicity)", "setting": "[1]; listed as (C8)^7", "value": 71, "unit": "%"}]}
